According to patent US20160002217A1, “FUNGICIDAL 3--OXADIAZOLONE DERIVATIVES” (BAYER CROPSCIENCE AG, priority 2013, published 2016):
Marks after values point to notes of the source that are not given here.

System: Phytophthora infestans
Format: in vivo
Details: tomato plants, preventive spray, 500 ppm of active ingredient, evaluated 5 days after inoculation
For `CC(Oc1ccccc1)C(=O)Nc1nc(CON=C(c2ccsc2)c2noc(=O)n2C)cs1` (racemic) [Example 43], the “% efficacy” value was 98%. For `CCCCOC(=O)Nc1cccc(CON=C(c2ccccn2)c2noc(=O)n2C)n1` [Example 3], the “% efficacy” value was 100%. In the case of `CCCCCC(=O)Nc1cccc(CON=C(c2ccccn2)c2noc(=O)n2C)n1` [Example 4], the “% efficacy” value is reported as 88%. For `C#CCCOC(=O)Nc1cccc(CON=C(c2ccccn2)c2noc(=O)n2C)n1` [Example 7], the “% efficacy” value was 85%. With `CCCCCOC(=O)Nc1cccc(CON=C(c2ccccn2)c2noc(=O)n2C)n1` [Example 12] the “% efficacy” value was 85%. With `CCCCCOC(=O)Nc1cccc(CON=C(c2ccccn2)c2nc(=O)on2C)n1` [Example 15] the “% efficacy” value was 88%. For `Cn1oc(=O)nc1C(=NOCc1cccc(NC(=O)OC(C)(C)C)n1)c1ccncc1` [Example 37], the “% efficacy” value was 80%. For `Cn1c(C(=NOCc2cccc(NC(=O)OC(C)(C)C)n2)c2ccncc2)noc1=O` [Example 38], the “% efficacy” value was 100%. In the case of `Cn1c(C(=NOCc2csc(NC(=O)OC(C)(C)C)n2)c2cccs2)noc1=O` [Example 42], the “% efficacy” value is reported as 93%. For `CCCCCOC(=O)Nc1cccc(CON=C(c2cccnc2)c2noc(=O)n2C)n1` [Example 49], the “% efficacy” value was 99%. In the case of `CCCCOC(=O)Nc1cccc(CON=C(c2cccnc2)c2noc(=O)n2C)n1` [Example 50], the “% efficacy” value is reported as 100%. For `C#CCCOC(=O)Nc1cccc(CON=C(c2cccnc2)c2noc(=O)n2C)n1` [Example 51], the “% efficacy” value was 90%. With `CCCCCOC(=O)Nc1cccc(CON=C(c2ncccn2)c2noc(=O)n2C)n1` [Example 52] the “% efficacy” value was 88%. For `CCCCOC(=O)Nc1cccc(CON=C(c2ncccn2)c2noc(=O)n2C)n1` [Example 53], the “% efficacy” value was 85%. For `CCCCCOC(=O)Nc1cccc(CON=C(c2cccnc2)c2nc(=O)on2C)n1` [Example 55], the “% efficacy” value was 92%.

System: not given
Details: pH 2.7
For `CC(Oc1ccccc1)C(=O)Nc1nc(CON=C(c2ccsc2)c2noc(=O)n2C)cs1` (racemic) [Example 43], the LogP was 3.37^[a]. In the case of `Cn1c(C(=NOCc2cccc(NC(=O)OC(C)(C)C)n2)c2ncccn2)noc1=O` (single isomer, unassigned) [Example 27], the LogP is reported as 2.66^[a][b]. In the case of `Cn1c(C(=NOCc2cccc(NC(=O)OC(C)(C)C)n2)c2ncccn2)noc1=O` (single isomer, unassigned) [Example 28], the LogP is reported as 2.56^[a][c]. For `CCn1oc(=O)nc1C(=NOCc1cccc(N)n1)c1ccccn1` [Example 1], the LogP was 0.69^[a]. For `CCCCCOC(=O)Nc1cccc(CON=C(c2ccccn2)c2nc(=O)on2CC)n1` [Example 2], the LogP was 3.42^[a]. With `CCCCOC(=O)Nc1cccc(CON=C(c2ccccn2)c2noc(=O)n2C)n1` [Example 3] the LogP was 3.25^[a]. In the case of `CCCCCC(=O)Nc1cccc(CON=C(c2ccccn2)c2noc(=O)n2C)n1` [Example 4], the LogP is reported as 3.13^[a]. With `CCCCOC(=O)Nc1cccc(CON=C(c2ccccn2)c2nc(=O)on2CC)n1` [Example 5] the LogP was 2.96^[a]. In the case of `CCCCC(=O)Nc1cccc(CON=C(c2ccccn2)c2nc(=O)on2CC)n1` [Example 6], the LogP is reported as 2.49^[a]. In the case of `C#CCCOC(=O)Nc1cccc(CON=C(c2ccccn2)c2noc(=O)n2C)n1` [Example 7], the LogP is reported as 2.56^[a]. With `CCn1oc(=O)nc1C(=NOCc1cccc(NC(=O)OC(C)(C)C)n1)c1ccccn1` [Example 8] the LogP was 2.84^[a]. With `CCCCC(=O)Nc1cccc(CON=C(c2ccccn2)c2nc(=O)on2C)n1` [Example 10] the LogP was 2.25^[a]. For `CCCCCC(=O)Nc1cccc(CON=C(c2ccccn2)c2nc(=O)on2CC)n1` [Example 11], the LogP was 2.84^[a]. In the case of `CCCCCOC(=O)Nc1cccc(CON=C(c2ccccn2)c2noc(=O)n2C)n1` [Example 12], the LogP is reported as 3.67^[a]. With `Cn1c(C(=NOCc2cccc(N)n2)c2ccccn2)noc1=O` [Example 14] the LogP was 0.85^[a]. With `CCCCCOC(=O)Nc1cccc(CON=C(c2ccccn2)c2nc(=O)on2C)n1` [Example 15] the LogP was 3.09^[a]. In the case of `CCCCCC(=O)Nc1cccc(CON=C(c2ccccn2)c2nc(=O)on2C)n1` [Example 18], the LogP is reported as 2.61^[a]. In the case of `CC(C)(C)OC(=O)Nc1nc(CON=C(c2ccsc2)c2noc(=O)[nH]2)cs1` [Example 20], the LogP is reported as 3.20^[a]. For `CCCCOC(=O)Nc1cccc(CON=C(c2ccccn2)c2nc(=O)on2C)n1` [Example 21], the LogP was 2.70^[a]. For `CC(C)(C)OC(=O)Nc1nc(CON=C(c2noc(=O)[nH]2)c2cccs2)cs1` [Example 24], the LogP was 3.26^[a]. For `Cn1oc(=O)nc1C(=NOCc1cccc(NC(=O)OC(C)(C)C)n1)c1ncccn1` [Example 25], the LogP was 2.14^[a]. With `CC(C)(C)OC(=O)Nc1cccc(CON=C(c2ncccn2)c2noc(=O)[nH]2)n1` [Example 26] the LogP was 2.27^[a]. For `Cn1oc(=O)nc1C(=NOCc1cccc(N)n1)c1ncccn1` [Example 29], the LogP was 0.92^[a]. In the case of `Cn1c(C(=NOCc2cccc(N)n2)c2ncccn2)noc1=O` [Example 30], the LogP is reported as 0.39^[a]. With `Cn1oc(=O)nc1C(=NOCc1cccc(NC(=O)OC(C)(C)C)n1)c1cccnc1` [Example 31] the LogP was 2.28 + 2.37^[a]. In the case of `Cn1oc(=O)nc1C(=NOCc1cccc(N)n1)c1cccnc1` [Example 34], the LogP is reported as 1.19^[a]. In the case of `Cn1c(C(=NOCc2cccc(N)n2)c2cccnc2)noc1=O` [Example 35], the LogP is reported as 0.52 ± 0.46^[a]. In the case of `CC(C)(C)OC(=O)Nc1cccc(CON=C(c2ccncc2)c2noc(=O)[nH]2)n1` [Example 36], the LogP is reported as 2.37^[a]. In the case of `Cn1oc(=O)nc1C(=NOCc1cccc(NC(=O)OC(C)(C)C)n1)c1ccncc1` [Example 37], the LogP is reported as 2.21^[a]. With `Cn1c(C(=NOCc2cccc(NC(=O)OC(C)(C)C)n2)c2ccncc2)noc1=O` [Example 38] the LogP was 2.75^[a]. With `Cn1oc(=O)nc1C(=NOCc1cccc(N)n1)c1ccncc1` [Example 39] the LogP was 1.20^[c]. In the case of `Cn1c(C(=NOCc2cccc(N)n2)c2ccncc2)noc1=O` [Example 40], the LogP is reported as 0.41^[a]. With `CN(C(=O)OC(C)(C)C)c1nc(CON=C(c2cccs2)c2noc(=O)n2C)cs1` [Example 41] the LogP was 4.24^[a]. With `Cn1c(C(=NOCc2csc(NC(=O)OC(C)(C)C)n2)c2cccs2)noc1=O` [Example 42] the LogP was 3.35^[a]. In the case of `CCCCOC(=O)Nc1cccc(CON=C(c2ncccn2)c2nc(=O)on2C)n1` [Example 46], the LogP is reported as 2.23^[a]. In the case of `CCCCCC(=O)Nc1cccc(CON=C(c2cccnc2)c2noc(=O)n2C)n1` [Example 47], the LogP is reported as 2.86^[a]. With `CCCCCC(=O)Nc1cccc(CON=C(c2ncccn2)c2nc(=O)on2C)n1` [Example 48] the LogP was 2.18^[a]. In the case of `CCCCCOC(=O)Nc1cccc(CON=C(c2cccnc2)c2noc(=O)n2C)n1` [Example 49], the LogP is reported as 3.37^[a]. With `CCCCOC(=O)Nc1cccc(CON=C(c2cccnc2)c2noc(=O)n2C)n1` [Example 50] the LogP was 2.98^[a]. With `C#CCCOC(=O)Nc1cccc(CON=C(c2cccnc2)c2noc(=O)n2C)n1` [Example 51] the LogP was 2.32^[a]. For `CCCCCOC(=O)Nc1cccc(CON=C(c2ncccn2)c2noc(=O)n2C)n1` [Example 52], the LogP was 3.06^[a]. With `CCCCOC(=O)Nc1cccc(CON=C(c2ncccn2)c2noc(=O)n2C)n1` [Example 53] the LogP was 2.68^[a]. For `C#CCCOC(=O)Nc1cccc(CON=C(c2ncccn2)c2noc(=O)n2C)n1` [Example 54], the LogP was 2.08^[a]. With `CCCCCOC(=O)Nc1cccc(CON=C(c2cccnc2)c2nc(=O)on2C)n1` [Example 55] the LogP was 2.84^[a]. For `CCCCC(=O)Nc1cccc(CON=C(c2ncccn2)c2nc(=O)on2C)n1` [Example 58], the LogP was 1.84^[a]. For `CCCCC(=O)Nc1cccc(CON=C(c2ncccn2)c2noc(=O)n2C)n1` [Example 61], the LogP was 2.23^[a]. With `CCCCC(=O)Nc1cccc(CON=C(c2cccnc2)c2nc(=O)on2C)n1` [Example 62] the LogP was 2.04^[a]. With `Cn1c(C(=NOCc2csc(NC(=O)c3ccc(F)cc3)n2)c2ccsc2)noc1=O` [Example 64] the LogP was 3.26^[a]. With `Cn1c(C(=NOCc2csc(N(COCC[Si](C)(C)C)C(=O)OC(C)(C)C)n2)c2ccsc2)noc1=O` [Example 65] the LogP was 5.86^[a]. For `CC(C)(C)OC(=O)N(COCC[Si](C)(C)C)c1nc(CON=C(c2ccsc2)c2noc(=O)[nH]2)cs1` [Example 66], the LogP was 5.45^[a]. With `CCCCCOC(=O)Nc1nc(CON=C(c2ccsc2)c2noc(=O)n2C)cs1` [Example 68] the LogP was 3.81^[a]. For `Cn1c(C(=NOCc2csc(N(COCC[Si](C)(C)C)C(=O)OC(C)(C)C)n2)c2cccs2)noc1=O` [Example 70], the LogP was 5.84^[a]. For `CC(C)(C)OC(=O)N(COCC[Si](C)(C)C)c1nc(CON=C(c2noc(=O)[nH]2)c2cccs2)cs1` [Example 72], the LogP was 5.45^[a]. In the case of `CCCCC(=O)Nc1cccc(CON=C(c2ccncc2)c2nc(=O)on2C)n1` [Example 75], the LogP is reported as 1.88^[a]. In the case of `C#CCCOC(=O)Nc1cccc(CON=C(c2ccncc2)c2nc(=O)on2C)n1` [Example 76], the LogP is reported as 1.74^[a]. With `CCCCCC(=O)Nc1cccc(CON=C(c2ccncc2)c2nc(=O)on2C)n1` [Example 77] the LogP was 2.23^[a]. With `CCCCCOC(=O)Nc1cccc(CON=C(c2ccncc2)c2nc(=O)on2C)n1` [Example 78] the LogP was 2.68^[a]. With `CCCCOC(=O)Nc1cccc(CON=C(c2ccncc2)c2nc(=O)on2C)n1` [Example 79] the LogP was 2.32^[a]. With `Cn1c(C(=NOCc2csc(N)n2)c2cccs2)noc1=O` [Example 81] the LogP was 1.38^[a]. With `Cn1c(C(=NOCc2csc(NC(=O)c3ccc(F)cc3)n2)c2cccs2)noc1=O` [Example 85] the LogP was 3.20^[a]. In the case of `Cn1c(C(=NOCc2csc(NC(=O)COc3ccccc3)n2)c2cccs2)noc1=O` [Example 86], the LogP is reported as 3.18^[a]. For `CC(C)(C)OC(=O)Nc1nc(CON=C(C#N)c2ccsc2)cs1` [Example IV-01], the LogP was 3.62^[a]. With `CC(C)(C)OC(=O)Nc1cccc(CON=C(C#N)c2ncccn2)n1` [Example IV-03] the LogP was 2.82^[a]. For `CC(C)(C)OC(=O)Nc1cccc(CON=C(C#N)c2ccncc2)n1` [Example IV-04], the LogP was 3.05^[a]. In the case of `CC(C)(C)OC(=O)Nc1nc(CON=C(C#N)c2cccs2)cs1` [Example IV-05], the LogP is reported as 3.65^[a]. In the case of `CC(C)(C)OC(=O)N(COCC[Si](C)(C)C)c1nc(CON=C(C#N)c2cccs2)cs1` [Example IV-06], the LogP is reported as 6.35^[a]. In the case of `CCOC(=O)c1nc(CON=C(C#N)c2ccsc2)cs1` [Example IV-08], the LogP is reported as 3.15^[a]. With `Cc1nc(CON=C(C#N)c2ccsc2)cs1` [Example IV-09] the LogP was 1.45^[a]. In the case of `N#CC(=NOCc1csc(NC(=O)c2ccc(F)cc2)n1)c1ccsc1` [Example IV-10], the LogP is reported as 3.51^[a]. With `CC(C)(C)OC(=O)N(C(=O)OC(C)(C)C)c1nc(CON=C(C#N)c2ccsc2)cs1` [Example IV-11] the LogP was 4.90^[a]. For `CC(C)(C)OC(=O)Nc1cccc(CON=C(C(N)=NO)c2ccccn2)n1` [Example V-01], the LogP was 1.76^[a]. For `CC(C)(C)OC(=O)Nc1nc(CON=C(C(N)=NO)c2ccsc2)cs1` [Example V-02], the LogP was 2.17^[a]. With `CC(C)(C)OC(=O)N(COCC[Si](C)(C)C)c1nc(CON=C(C(N)=NO)c2cccs2)cs1` [Example V-04] the LogP was 4.60^[a]. For `CCOC(=O)c1nc(CON=C(C(N)=NO)c2ccsc2)cs1` [Example V-05], the LogP was 1.70^[a]. In the case of `CC(C)(C)OC(=O)Nc1cccc(CON=C(C(N)=NO)c2ccncc2)n1` [Example V-06], the LogP is reported as 1.53^[a]. In the case of `CC(C)(C)OC(=O)Nc1cccc(CON=C(C(N)=NO)c2ncccn2)n1` [Example V-07], the LogP is reported as 1.58 + 1.87^[a]. With `CC(C)(C)OC(=O)Nc1nc(CON=C(C(N)=NO)c2cccs2)cs1` [Example V-08] the LogP was 2.26^[a].
